Reference: ChEMBL document CHEMBL1914289, “Discovery of novel Cobactin-T based matrix metalloproteinase inhibitors via a ring closing metathesis strategy” (Bioorg Med Chem Lett, 2011)
Each block holds one compound with its values, some of them ahead of it.

Assays:
[1] = biological target: MMP-2/MMP-9 (Homo sapiens) (UniProt P08253+P14780); assay: Selectivity ratio of IC50 for full length human MMP2 (amino acids 1 to 660) to IC50 for human MMP9 catalytic domain (amino acids 107 to 446)
[2] = biological target: Matrix metalloproteinase-9 (Homo sapiens, UniProt P14780); assay: Inhibition of human MMP9 catalytic domain (amino acids 107 to 446) using acetyl-Cys(Eu)-Pro-Leu-Gly-Leu-Lys-(QSY7)-Ala-Arg-amide as substrate preincubated for 1 hrs before substrate addition measured after 15 mins by fluorimetry
Matrix metalloproteinase-9, sequence (P14780 whole entry, the tested form may be a part): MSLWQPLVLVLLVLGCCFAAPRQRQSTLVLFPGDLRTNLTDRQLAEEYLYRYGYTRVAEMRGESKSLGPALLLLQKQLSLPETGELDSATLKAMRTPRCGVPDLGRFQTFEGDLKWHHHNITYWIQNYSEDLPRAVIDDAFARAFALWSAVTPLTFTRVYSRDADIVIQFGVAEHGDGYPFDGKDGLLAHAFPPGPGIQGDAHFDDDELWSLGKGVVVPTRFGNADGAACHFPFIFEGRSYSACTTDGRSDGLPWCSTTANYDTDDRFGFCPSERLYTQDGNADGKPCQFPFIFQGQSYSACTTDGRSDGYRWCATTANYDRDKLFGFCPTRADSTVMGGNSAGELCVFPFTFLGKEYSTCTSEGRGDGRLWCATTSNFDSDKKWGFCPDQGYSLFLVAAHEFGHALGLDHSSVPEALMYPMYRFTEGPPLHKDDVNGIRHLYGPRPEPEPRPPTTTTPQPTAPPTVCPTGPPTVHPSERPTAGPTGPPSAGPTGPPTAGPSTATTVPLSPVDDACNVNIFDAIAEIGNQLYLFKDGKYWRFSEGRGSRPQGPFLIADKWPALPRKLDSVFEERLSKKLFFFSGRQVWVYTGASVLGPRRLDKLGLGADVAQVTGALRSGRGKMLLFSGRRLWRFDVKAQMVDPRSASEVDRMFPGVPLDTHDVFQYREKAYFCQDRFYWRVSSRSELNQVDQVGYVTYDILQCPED

Interstitial collagenase = biological target: T1, Interstitial collagenase (Homo sapiens, UniProt P03956); assay: Inhibition of human MMP1 catalytic domain (amino acids 100 to 262) using acetyl-Cys(Eu)-Pro-Leu-Gly-Leu-Lys-(QSY7)-Ala-Arg-amide as substrate preincubated for 1 hrs before substrate addition measured after 15 mins by fluorimetry
T1 sequence (P03956 whole entry): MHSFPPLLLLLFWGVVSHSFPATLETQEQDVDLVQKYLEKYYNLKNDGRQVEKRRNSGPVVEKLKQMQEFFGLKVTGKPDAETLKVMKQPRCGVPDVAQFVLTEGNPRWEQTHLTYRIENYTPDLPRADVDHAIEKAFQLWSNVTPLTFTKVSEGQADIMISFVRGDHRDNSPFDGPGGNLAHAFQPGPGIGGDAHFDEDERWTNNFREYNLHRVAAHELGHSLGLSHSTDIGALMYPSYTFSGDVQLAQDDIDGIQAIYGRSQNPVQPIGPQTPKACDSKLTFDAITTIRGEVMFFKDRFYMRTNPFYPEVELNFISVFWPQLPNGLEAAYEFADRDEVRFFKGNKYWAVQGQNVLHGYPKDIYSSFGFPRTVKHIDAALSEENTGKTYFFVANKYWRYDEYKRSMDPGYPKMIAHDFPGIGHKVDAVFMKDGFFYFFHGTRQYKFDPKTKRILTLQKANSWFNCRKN

Stromelysin-1 = Stromelysin-1 (Homo sapiens, UniProt P08254); assay: Inhibition of human MMP3 catalytic domain (amino acids 100 to 265) using acetyl-Cys(Eu)-Pro-Leu-Gly-Leu-Lys-(QSY7)-Ala-Arg-amide as substrate preincubated for 1 hrs before substrate addition measured after 15 mins by fluorimetry
Stromelysin-1, sequence (P08254 whole entry, the tested form may be a part): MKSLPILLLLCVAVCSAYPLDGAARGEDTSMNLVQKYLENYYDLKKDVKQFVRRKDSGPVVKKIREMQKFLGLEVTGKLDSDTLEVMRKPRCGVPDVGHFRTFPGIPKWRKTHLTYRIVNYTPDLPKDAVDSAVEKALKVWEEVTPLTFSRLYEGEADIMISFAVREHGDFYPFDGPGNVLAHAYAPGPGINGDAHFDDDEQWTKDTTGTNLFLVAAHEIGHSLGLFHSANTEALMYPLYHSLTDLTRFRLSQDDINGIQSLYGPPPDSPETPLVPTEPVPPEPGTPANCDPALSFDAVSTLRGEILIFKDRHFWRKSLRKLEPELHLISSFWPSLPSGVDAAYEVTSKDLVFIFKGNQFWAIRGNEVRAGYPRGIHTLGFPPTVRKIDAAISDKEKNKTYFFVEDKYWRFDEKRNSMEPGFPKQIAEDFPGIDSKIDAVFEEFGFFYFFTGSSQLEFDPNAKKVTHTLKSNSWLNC

Collagenase 3 = Collagenase 3 (Homo sapiens, UniProt P45452); assay: Inhibition of human MMP13 catalytic domain (amino acids 103 to 268) using acetyl-Cys(Eu)-Pro-Leu-Gly-Leu-Lys-(QSY7)-Ala-Arg-amide as substrate preincubated for 1 hrs before substrate addition measured after 15 mins by fluorimetry
Homo sapiens [3] = species: Homo sapiens; assay: Selectivity ratio of IC50 for human MMP3 catalytic domain (amino acids 100 to 265) to IC50 for full length human MMP2 (amino acids 1 to 660)
Homo sapiens [4] = species: Homo sapiens; assay: Selectivity ratio of IC50 for human MMP3 catalytic domain (amino acids 100 to 265) to IC50 for human MMP9 catalytic domain (amino acids 107 to 446)
[5] = biological target: 72 kDa type IV collagenase (Homo sapiens, UniProt P08253); assay: Inhibition of full length human MMP2 (amino acids 1 to 660) using acetyl-Cys(Eu)-Pro-Leu-Gly-Leu-Lys-(QSY7)-Ala-Arg-amide as substrate preincubated for 1 hrs before substrate addition measured after 15 mins by fluorimetry
72 kDa type IV collagenase, sequence (P08253 whole entry, the tested form may be a part): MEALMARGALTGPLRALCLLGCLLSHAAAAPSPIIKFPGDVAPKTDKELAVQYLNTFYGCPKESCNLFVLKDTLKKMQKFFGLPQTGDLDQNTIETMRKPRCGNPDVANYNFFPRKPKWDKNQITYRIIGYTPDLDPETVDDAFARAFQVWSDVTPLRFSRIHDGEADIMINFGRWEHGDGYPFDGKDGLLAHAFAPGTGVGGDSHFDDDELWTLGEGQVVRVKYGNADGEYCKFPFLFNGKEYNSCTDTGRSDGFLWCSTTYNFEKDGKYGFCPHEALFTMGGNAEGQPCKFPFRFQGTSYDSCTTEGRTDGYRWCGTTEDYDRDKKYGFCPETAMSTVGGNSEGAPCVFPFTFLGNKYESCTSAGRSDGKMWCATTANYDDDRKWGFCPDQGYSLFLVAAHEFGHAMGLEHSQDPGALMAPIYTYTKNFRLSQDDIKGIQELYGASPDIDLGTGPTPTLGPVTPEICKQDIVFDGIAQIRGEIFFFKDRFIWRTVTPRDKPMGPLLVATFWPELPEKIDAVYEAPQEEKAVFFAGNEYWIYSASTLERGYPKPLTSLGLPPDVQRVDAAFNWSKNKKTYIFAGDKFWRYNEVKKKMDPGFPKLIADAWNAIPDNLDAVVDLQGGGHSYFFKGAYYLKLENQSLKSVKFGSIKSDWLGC

[6] = Cmax in rat at 0.5 mg/kg, iv; format: ADME, organism-based; set-up: dose 0.5 mg/kg, route intravenous; conditions: in vivo
[7] = Half life in rat at 0.5 mg/kg, iv; format: ADME, organism-based; set-up: dose 0.5 mg/kg, route intravenous; conditions: in vivo
Rattus norvegicus = assay: (§1) AUC in rat at 0.5 mg/kg, iv; format: ADME, organism-based, Plasma; set-up: dose 0.5 mg/kg, route intravenous; conditions: in vivo
[8] = Volume of distribution at steady state in rat at 0.5 mg/kg, iv; format: ADME, organism-based; set-up: dose 0.5 mg/kg, route intravenous; conditions: in vivo, read-out: Vdss
[9] = Cmax in mouse at 10 mg/kg, po; format: ADME, organism-based; set-up: dose 10 mg/kg, route oral; conditions: in vivo
[10] = Half life in mouse at 10 mg/kg, po; format: ADME, organism-based; set-up: dose 10 mg/kg, route oral; conditions: in vivo
[11] = biological target: Voltage-gated inwardly rectifying potassium channel KCNH2 (Homo sapiens, UniProt Q12809); assay: Binding affinity to human Erg at 10 uM
Voltage-gated inwardly rectifying potassium channel KCNH2, sequence (Q12809 whole entry): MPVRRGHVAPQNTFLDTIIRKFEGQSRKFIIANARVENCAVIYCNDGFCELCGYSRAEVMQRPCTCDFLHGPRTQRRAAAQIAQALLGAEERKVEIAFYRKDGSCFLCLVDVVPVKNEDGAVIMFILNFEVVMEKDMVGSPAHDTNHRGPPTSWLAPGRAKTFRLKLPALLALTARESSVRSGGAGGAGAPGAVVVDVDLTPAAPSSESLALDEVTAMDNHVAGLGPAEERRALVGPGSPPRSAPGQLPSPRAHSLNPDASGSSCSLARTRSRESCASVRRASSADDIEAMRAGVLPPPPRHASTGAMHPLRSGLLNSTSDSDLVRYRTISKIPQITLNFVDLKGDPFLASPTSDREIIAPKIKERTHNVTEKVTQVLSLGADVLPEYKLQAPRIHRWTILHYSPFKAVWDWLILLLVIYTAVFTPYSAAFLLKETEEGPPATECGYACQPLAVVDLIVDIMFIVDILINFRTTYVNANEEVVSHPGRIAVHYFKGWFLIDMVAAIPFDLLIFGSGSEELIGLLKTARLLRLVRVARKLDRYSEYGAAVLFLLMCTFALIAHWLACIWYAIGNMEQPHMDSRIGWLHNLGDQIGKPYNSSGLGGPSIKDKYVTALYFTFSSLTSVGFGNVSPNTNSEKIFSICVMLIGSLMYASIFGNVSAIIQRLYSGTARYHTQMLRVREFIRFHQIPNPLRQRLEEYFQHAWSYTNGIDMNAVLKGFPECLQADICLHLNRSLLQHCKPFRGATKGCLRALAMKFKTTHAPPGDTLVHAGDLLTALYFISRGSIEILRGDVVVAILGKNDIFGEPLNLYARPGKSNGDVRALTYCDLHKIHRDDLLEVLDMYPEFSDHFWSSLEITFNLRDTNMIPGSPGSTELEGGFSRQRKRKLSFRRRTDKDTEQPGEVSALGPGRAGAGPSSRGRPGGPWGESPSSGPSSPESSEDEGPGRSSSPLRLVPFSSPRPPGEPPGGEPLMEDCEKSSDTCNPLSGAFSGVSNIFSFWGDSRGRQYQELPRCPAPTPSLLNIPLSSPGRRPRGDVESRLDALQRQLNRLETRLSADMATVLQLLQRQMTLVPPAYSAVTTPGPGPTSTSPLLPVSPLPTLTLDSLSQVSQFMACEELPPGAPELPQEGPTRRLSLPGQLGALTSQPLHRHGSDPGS

CYP3A4 = CYP3A4 (Homo sapiens, UniProt P08684); assay: Inhibition of CYP 3A4 at 1 uM; format: ADME
CYP3A4, sequence (P08684 whole entry): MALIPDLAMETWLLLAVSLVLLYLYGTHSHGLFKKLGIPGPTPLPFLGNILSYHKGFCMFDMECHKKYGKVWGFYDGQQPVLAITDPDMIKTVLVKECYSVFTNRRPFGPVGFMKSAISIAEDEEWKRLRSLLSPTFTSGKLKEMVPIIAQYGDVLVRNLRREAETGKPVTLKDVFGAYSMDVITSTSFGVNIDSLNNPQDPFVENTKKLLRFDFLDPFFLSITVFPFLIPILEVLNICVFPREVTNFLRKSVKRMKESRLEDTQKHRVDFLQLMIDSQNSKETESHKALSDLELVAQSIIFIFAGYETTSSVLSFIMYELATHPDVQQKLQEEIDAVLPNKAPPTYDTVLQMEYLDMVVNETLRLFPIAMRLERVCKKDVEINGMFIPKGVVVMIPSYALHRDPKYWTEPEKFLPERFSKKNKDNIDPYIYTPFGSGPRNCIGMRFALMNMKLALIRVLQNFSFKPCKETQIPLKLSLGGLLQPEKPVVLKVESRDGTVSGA

CYP2D6 = CYP2D6 (Homo sapiens, UniProt P10635); assay: Inhibition of CYP 2D6 at 1 uM; format: ADME
CYP2D6, sequence (P10635 whole entry): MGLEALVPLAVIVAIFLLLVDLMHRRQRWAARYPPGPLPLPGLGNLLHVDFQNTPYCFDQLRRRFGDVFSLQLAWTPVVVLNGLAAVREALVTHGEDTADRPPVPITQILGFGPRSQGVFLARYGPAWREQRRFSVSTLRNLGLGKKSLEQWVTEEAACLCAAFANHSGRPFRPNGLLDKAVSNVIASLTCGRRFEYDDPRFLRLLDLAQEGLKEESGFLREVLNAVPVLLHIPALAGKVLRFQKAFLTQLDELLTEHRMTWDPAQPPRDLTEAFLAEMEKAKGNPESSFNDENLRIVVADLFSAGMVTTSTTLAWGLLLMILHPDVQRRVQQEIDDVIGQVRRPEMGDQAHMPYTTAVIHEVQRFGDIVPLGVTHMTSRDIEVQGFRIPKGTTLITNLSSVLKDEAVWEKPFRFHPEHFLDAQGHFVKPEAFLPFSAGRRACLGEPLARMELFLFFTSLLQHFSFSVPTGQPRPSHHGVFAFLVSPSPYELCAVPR

Salmonella typhimurium = assay: Induction of mutagenicity in Salmonella Typhimurium by AMES test; format: toxicity, organism-based; conditions: salmonella enterica subsp. enterica serovar typhimurium
[12] = as §1; format: ADME, organism-based, Plasma; set-up: dose 0.5 mg/kg, route intravenous; conditions: plasma
[13] = Clearance in rat at 0.5 mg/kg, iv; format: ADME, organism-based; set-up: dose 0.5 mg/kg, route intravenous; conditions: in vivo

Ratio IC50 [1]: 2
Structure (SMILES): CN1CCN(CCN([C@@H]2CC=CCN(O)C2=O)S(=O)(=O)c2ccc(Oc3ccc(Cl)cc3)cc2)CC1

IC50 [2]: 11 nM
IC50 (Interstitial collagenase): > 1000 nM
IC50 (Stromelysin-1): 493 nM
IC50 (Collagenase 3): 3 nM
Ratio IC50 (Homo sapiens [3]): 100
Ratio IC50 (Homo sapiens [4]): 100
Structure (SMILES): COc1ccc(-c2ccc(S(=O)(=O)N[C@@H]3CC=CCN(O)C3=O)s2)cc1

IC50 [5]: 2 nM
IC50 [2]: 1.3 nM
Structure (SMILES): CC1=CC[C@@H](NS(=O)(=O)c2ccc(Oc3ccc(Cl)cc3)cc2)C(=O)N(O)C1

IC50 [5]: 11 nM
IC50 [2]: 16 nM
Structure (SMILES): O=C1[C@H](NS(=O)(=O)c2ccc(-c3ccc(Cl)cc3)s2)CC=CCN1O

IC50 [5]: 7 nM
IC50 [2]: 11 nM
Structure (SMILES): Cc1ccc(-c2ccc(S(=O)(=O)N(CCN3CCOCC3)[C@@H]3CC=CCN(O)C3=O)s2)cc1

IC50 [5]: 3.7 nM
IC50 [2]: 5.9 nM
Structure (SMILES): O=C1[C@H](NS(=O)(=O)c2ccc(Oc3ccc(Cl)cc3)cc2)CCCCN1O

IC50 [5]: 4 nM
IC50 [2]: 9 nM
Structure (SMILES): Cc1ccc(-c2ccc(S(=O)(=O)N[C@@H]3CC=CCN(O)C3=O)s2)cc1

IC50 [5]: 1600 nM
IC50 [2]: 1120 nM
Structure (SMILES): O=C1[C@@H](NS(=O)(=O)c2ccc(Oc3ccc(Cl)cc3)cc2)CC=CCN1O

IC50 [5]: 85 nM
IC50 [2]: 1510 nM
Structure (SMILES): O=C1[C@H](NS(=O)(=O)c2ccc(-c3ccc(Cl)cc3)cc2)CC=CCN1O

Ratio IC50 [1]: 2
Structure (SMILES): O=C1[C@H](N(CCN2CCCCC2)S(=O)(=O)c2ccc(Oc3ccc(Cl)cc3)cc2)CC=CCN1O

IC50 [5]: 1 nM
IC50 [2]: 2 nM
Structure (SMILES): O=C1[C@H](NS(=O)(=O)c2ccc(Oc3ccccc3)cc2)CC=CCN1O

IC50 [5]: 0.39 nM
IC50 [2]: 0.22 nM
IC50 (Interstitial collagenase): > 1000 nM
IC50 (Stromelysin-1): 90 nM
IC50 (Collagenase 3): 0.7 nM
Ratio IC50 [1]: 2
Ratio IC50 (Homo sapiens [3]): 100
Ratio IC50 (Homo sapiens [4]): 100
Cmax [6]: 4.4 µM
half-life [7]: 2 h
AUC (Rattus norvegicus): 1831 ng·h/mL
Vd [8]: 1.4 L/kg
Cmax [9]: 38.3 µM
half-life [10]: 1 h
inhibition at 1 µM (CYP3A4): < 50%
inhibition at 1 µM (CYP2D6): < 50%
Structure (SMILES): O=C1[C@H](N(CCN2CCOCC2)S(=O)(=O)c2ccc(Oc3ccc(Cl)cc3)cc2)CC=CCN1O
Activity [11]: < 50%
Activity (Salmonella typhimurium): Non-toxic

IC50 [5]: 16 nM
IC50 [2]: 17 nM
Structure (SMILES): O=C1[C@H](N(CCN2CCOCC2)S(=O)(=O)c2ccc(-c3ccc(Cl)cc3)s2)CC=CCN1O

IC50 [5]: 2320 nM
IC50 [2]: 5090 nM
Structure (SMILES): O=C(N[C@@H]1CC=CCN(O)C1=O)c1ccc(Oc2ccc(Cl)cc2)cc1

IC50 [5]: 2 nM
IC50 [2]: 2 nM
Structure (SMILES): O=C1[C@H](NS(=O)(=O)c2ccc(Oc3ccc(C(F)(F)F)cc3)cc2)CC=CCN1O

IC50 [5]: > 1000 nM
IC50 [2]: > 1000 nM
Structure (SMILES): O=C1NCC=CC[C@H]1NS(=O)(=O)c1ccc(Oc2ccc(Cl)cc2)cc1

IC50 [5]: 0.57 nM
IC50 [2]: 0.58 nM
IC50 (Interstitial collagenase): > 1000 nM
IC50 (Stromelysin-1): 86 nM
IC50 (Collagenase 3): 0.4 nM
Ratio IC50 (Homo sapiens [3]): 100
Ratio IC50 (Homo sapiens [4]): 100
Cmax [6]: 4.6 µM
half-life [7]: 14 h
AUC [12]: 1230 ng·h/mL
Vd [8]: 3.3 L/kg
clearance [13]: 7 mL/min/kg
inhibition at 1 µM (CYP3A4): < 50%
inhibition at 1 µM (CYP2D6): < 50%
Structure (SMILES): O=C1[C@H](NS(=O)(=O)c2ccc(Oc3ccc(Cl)cc3)cc2)CC=CCN1O
Activity [11]: < 50%
Activity (Salmonella typhimurium): Non-toxic

IC50 [5]: 2 nM
IC50 [2]: 1 nM
Structure (SMILES): COc1ccc(Oc2ccc(S(=O)(=O)N[C@@H]3CC=CCN(O)C3=O)cc2)cc1

IC50 [5]: 3 nM
IC50 [2]: 12 nM
Structure (SMILES): O=C1[C@H](NS(=O)(=O)c2ccc(Oc3ccncc3)cc2)CC=CCN1O

IC50 [5]: 2.4 nM
IC50 [2]: 0.8 nM
Ratio IC50 [1]: 2
Structure (SMILES): Cc1ccc(C#Cc2ccc(S(=O)(=O)N(CCN3CCOCC3)[C@@H]3CC=CCN(O)C3=O)s2)cc1

IC50 [5]: 0.53 nM
IC50 [2]: 0.46 nM
IC50 (Interstitial collagenase): > 1000 nM
IC50 (Stromelysin-1): 39 nM
IC50 (Collagenase 3): 0.2 nM
Ratio IC50 (Homo sapiens [3]): 100
Ratio IC50 (Homo sapiens [4]): 100
Structure (SMILES): O=C1[C@H](NS(=O)(=O)c2ccc(Oc3ccc(Cl)cc3)cc2)CC=C(CN2CCOCC2)CN1O
